Laboratory results taken from ChEMBL document CHEMBL3621185, “Progress in the development of fatty acid synthase inhibitors as anticancer targets” (Bioorg Med Chem Lett, 2015).

Key:
[1] = Cytotoxicity against human MCF10A cells; type: functional, cell-based; conditions: MCF-10A
Fatty acid synthase [2] = target: T1, Fatty acid synthase (Homo sapiens, UniProt P49327); assay: Inhibition of fatty acid synthase (unknown origin)
[3] = Cytotoxicity against human PC-3M-luc-C6 cells; type: functional, cell-based
A2780 = assay: Cytotoxicity against human A2780 cells; type: functional, cell-based
Fatty acid synthase [4] = target: T1, Fatty acid synthase; assay: Inhibition of fatty acid synthase KR domain (unknown origin)

T1 sequence (P49327 whole entry): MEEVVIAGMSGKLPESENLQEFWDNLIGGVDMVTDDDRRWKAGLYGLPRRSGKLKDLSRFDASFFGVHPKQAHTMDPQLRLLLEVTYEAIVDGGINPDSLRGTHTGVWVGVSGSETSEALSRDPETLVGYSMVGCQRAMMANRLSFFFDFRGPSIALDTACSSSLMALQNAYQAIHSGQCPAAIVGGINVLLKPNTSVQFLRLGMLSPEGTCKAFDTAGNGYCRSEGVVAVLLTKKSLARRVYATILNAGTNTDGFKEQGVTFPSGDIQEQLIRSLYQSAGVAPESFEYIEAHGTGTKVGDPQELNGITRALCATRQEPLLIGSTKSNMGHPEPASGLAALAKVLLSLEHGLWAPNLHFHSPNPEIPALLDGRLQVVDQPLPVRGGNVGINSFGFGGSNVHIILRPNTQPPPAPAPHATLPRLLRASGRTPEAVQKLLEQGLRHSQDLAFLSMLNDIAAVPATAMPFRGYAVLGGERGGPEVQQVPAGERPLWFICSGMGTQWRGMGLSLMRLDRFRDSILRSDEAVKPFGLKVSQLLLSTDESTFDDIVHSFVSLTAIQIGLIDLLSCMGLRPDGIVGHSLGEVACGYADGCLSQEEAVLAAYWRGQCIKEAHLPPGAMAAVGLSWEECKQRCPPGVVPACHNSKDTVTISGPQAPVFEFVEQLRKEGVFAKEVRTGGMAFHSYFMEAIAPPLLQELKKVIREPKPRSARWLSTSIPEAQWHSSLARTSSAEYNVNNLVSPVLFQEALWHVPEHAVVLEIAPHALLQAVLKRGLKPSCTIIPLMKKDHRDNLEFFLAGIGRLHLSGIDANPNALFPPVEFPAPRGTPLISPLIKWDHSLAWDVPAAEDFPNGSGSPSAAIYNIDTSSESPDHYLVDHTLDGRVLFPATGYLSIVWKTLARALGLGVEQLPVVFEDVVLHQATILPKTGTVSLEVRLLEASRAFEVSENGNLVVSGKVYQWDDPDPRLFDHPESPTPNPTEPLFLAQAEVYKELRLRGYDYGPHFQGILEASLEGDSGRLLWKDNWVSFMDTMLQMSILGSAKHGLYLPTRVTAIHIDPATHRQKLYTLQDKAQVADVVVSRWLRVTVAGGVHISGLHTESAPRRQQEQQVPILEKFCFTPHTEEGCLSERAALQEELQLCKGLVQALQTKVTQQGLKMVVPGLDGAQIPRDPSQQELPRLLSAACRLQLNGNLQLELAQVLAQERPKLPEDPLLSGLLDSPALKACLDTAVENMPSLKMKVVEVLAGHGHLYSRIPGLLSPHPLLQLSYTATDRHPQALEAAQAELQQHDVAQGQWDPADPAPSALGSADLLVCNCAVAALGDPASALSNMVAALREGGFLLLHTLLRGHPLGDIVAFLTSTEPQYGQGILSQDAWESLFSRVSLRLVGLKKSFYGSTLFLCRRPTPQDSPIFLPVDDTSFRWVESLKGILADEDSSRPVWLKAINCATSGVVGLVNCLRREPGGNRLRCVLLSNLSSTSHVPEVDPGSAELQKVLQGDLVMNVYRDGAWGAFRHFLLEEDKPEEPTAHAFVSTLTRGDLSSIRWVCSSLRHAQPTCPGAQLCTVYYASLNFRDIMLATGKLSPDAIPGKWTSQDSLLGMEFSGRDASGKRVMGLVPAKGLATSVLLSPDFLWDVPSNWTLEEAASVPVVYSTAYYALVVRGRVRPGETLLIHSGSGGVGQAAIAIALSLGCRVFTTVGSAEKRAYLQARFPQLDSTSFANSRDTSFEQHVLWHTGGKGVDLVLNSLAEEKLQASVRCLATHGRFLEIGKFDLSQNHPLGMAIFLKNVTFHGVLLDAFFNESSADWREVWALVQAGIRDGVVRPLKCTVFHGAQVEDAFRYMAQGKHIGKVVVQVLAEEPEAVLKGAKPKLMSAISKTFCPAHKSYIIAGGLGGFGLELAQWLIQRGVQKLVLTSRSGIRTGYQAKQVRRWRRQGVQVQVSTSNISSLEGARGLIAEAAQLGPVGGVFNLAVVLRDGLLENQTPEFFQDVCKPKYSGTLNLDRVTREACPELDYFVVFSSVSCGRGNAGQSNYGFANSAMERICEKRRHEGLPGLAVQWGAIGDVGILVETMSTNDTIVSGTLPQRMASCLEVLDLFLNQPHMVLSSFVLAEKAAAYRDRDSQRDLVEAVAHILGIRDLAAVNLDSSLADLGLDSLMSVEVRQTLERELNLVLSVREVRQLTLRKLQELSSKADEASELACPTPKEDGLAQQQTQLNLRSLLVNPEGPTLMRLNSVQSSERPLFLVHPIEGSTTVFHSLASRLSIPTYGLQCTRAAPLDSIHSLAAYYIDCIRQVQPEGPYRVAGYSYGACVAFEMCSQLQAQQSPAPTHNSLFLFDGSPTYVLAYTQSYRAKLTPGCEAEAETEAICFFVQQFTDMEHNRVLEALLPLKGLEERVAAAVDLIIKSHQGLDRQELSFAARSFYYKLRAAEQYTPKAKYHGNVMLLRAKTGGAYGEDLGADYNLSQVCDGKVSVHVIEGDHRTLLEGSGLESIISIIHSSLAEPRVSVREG

Q: For Cc1cc(C)cc(N2C(=O)NC(=O)/C(=C\c3ccc(-c4ccccc4)o3)C2=O)c1, which IC50 [1] is on record?
A: Its IC50 is 24300 nM.

Q: With CN(C[C@@H]1CCN(C(=O)C2CC2)C1)C(=O)c1ccc(-c2ccc3[nH]ccc3c2)cc1F as the molecule, how does the IC50 (Fatty acid synthase [2]) read?
A: The IC50 was 20 nM.

Q: Which IC50 (Fatty acid synthase [2]) does the source give for O=C(C1CC1)N1CC[C@@H](Cc2n[nH]c(=O)n2-c2ccc(-c3ccc4ccncc4c3)cc2F)C1 here?
A: Its IC50 is 3 nM.

Q: Which IC50 (Fatty acid synthase [2]) does the source give for O=C1COC2(CCN(S(=O)(=O)c3ccc(-c4cccc5cnccc45)cc3)CC2)CN1C1CC1 here?
A: Its IC50 is 6 nM.

Q: With N#Cc1ccc2cc(N3CCN(S(=O)(=O)N4CCC5(CC4)CN(C4CC4)C(=O)CO5)CC3)ccc2c1 as the molecule, how does the IC50 (Fatty acid synthase [2]) read?
A: The IC50 was 10 nM.

Q: For CC1(C)N=C(c2ccc(-c3c[nH]c4ccccc34)cc2)N(C[C@@H]2CCN(C(=O)C3CC3)C2)C1=O, which IC50 [3] is on record?
A: Its IC50 is 8 nM.

Q: And the IC50 (A2780)?
A: The IC50 was 3 nM.

Q: And the IC50 (Fatty acid synthase [4])?
A: The IC50 was 41 nM.

Q: Which IC50 [3] does the source give for Cc1ccc(C(=O)N2CCC(c3ccc4nncn4c3)CC2)cc1NC(=O)c1ccc(Cl)nc1 here?
A: Its IC50 is 35 nM.

Q: And the IC50 (A2780)?
A: Its IC50 is 41 nM.

Q: And the IC50 (Fatty acid synthase [4])?
A: Its IC50 is 93 nM.

Q: Which IC50 (Fatty acid synthase [2]) does the source give for O=C(C1CC1)N1CCC(Cn2cnnc2-c2ccc(-c3ccc4[nH]ncc4c3)cc2)C1 (single isomer, unassigned) here?
A: Its IC50 is 13 nM.
